Measurements taken from ChEMBL document CHEMBL1201862, “PubChem BioAssay data set” (2004).
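How tested: cells in 96-well plates exposed to compound for 48 hours at five concentrations. GI50 = concentration required for 50% inhibition of growth.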 Calls of active or inactive are those of the source. Cut-off read from the data, not from the text of the source: active = GI50 up to about 1.1 µM and inactive = higher.

Legend:
Assay in all cases: NCI tumour cell line growth inhibition, 48 h
ACHN = test system: ACHN
HT-29 = test system: HT-29
HOP-92 = test system: HOP-92
MDA-N = test system: MDA-N
SK-MEL-28 = test system: SK-MEL-28
786-0 = test system: 786-0
RPMI-8226 = test system: RPMI-8226
SNB-75 = test system: SNB-75
KM12 = test system: KM12
HOP-62 = test system: HOP-62
Malme-3M = test system: Malme-3M
NCI-H460 = test system: NCI-H460
A549 = test system: A549
SNB-19 = test system: SNB-19
SF-295 = test system: SF-295
HCT-116 = test system: HCT-116
DU-145 = test system: DU-145
T47D = test system: T47D
BT-549 = test system: BT-549
SF-539 = test system: SF-539

SMILES	GI50 (ACHN)	GI50 (HT-29)	GI50 (HOP-92)	GI50 (MDA-N)	GI50 (SK-MEL-28)	GI50 (786-0)	GI50 (RPMI-8226)	GI50 (SNB-75)	GI50 (KM12)	GI50 (HOP-62)	GI50 (Malme-3M)	GI50 (NCI-H460)	GI50 (A549)	GI50 (SNB-19)	GI50 (SF-295)	GI50 (HCT-116)	GI50 (DU-145)	GI50 (T47D)	GI50 (BT-549)	GI50 (SF-539)
Cc1cc(=O)oc2cc(OC(=O)N(CCCl)CCCl)ccc12	> 100 µM (inactive)	> 100 µM (inactive)	18.2 µM (inactive)	> 100 µM (inactive)	> 100 µM (inactive)	> 100 µM (inactive)	61.4 µM (inactive)	50.7 µM (inactive)	> 100 µM (inactive)	> 100 µM (inactive)	> 100 µM (inactive)	> 100 µM (inactive)	> 100 µM (inactive)	> 100 µM (inactive)	> 100 µM (inactive)	> 100 µM (inactive)	> 100 µM (inactive)	62.4 µM (inactive)	44.7 µM (inactive)	> 100 µM (inactive)
Cc1cc2c(O)c(c1)COCc1cc(C)cc(c1O)COCc1cc(C)cc(c1O)COC2	> 100 µM (inactive)	95.3 µM (inactive)	> 100 µM (inactive)	> 100 µM (inactive)	> 100 µM (inactive)	47.1 µM (inactive)	> 100 µM (inactive)	80.5 µM (inactive)	> 100 µM (inactive)	> 100 µM (inactive)	> 100 µM (inactive)	92 µM (inactive)	> 100 µM (inactive)	> 100 µM (inactive)	> 100 µM (inactive)	32.7 µM (inactive)	> 100 µM (inactive)	> 100 µM (inactive)	> 100 µM (inactive)	> 100 µM (inactive)
C[C@H]1C=C2[C@@H]3CC(C)(C(=O)O)CC[C@]3(C)CC[C@]2(C)[C@]2(C)CC[C@H]3C(C)(C)[C@@H](OC(=O)c4cccc5c(=O)c6ccccc6[nH]c45)CC[C@]3(C)[C@@H]12 (stereo not given in full)	67.3 µM (inactive)	> 100 µM (inactive)	> 100 µM (inactive)	59.8 µM (inactive)	53.3 µM (inactive)	> 100 µM (inactive)	43 µM (inactive)	> 100 µM (inactive)	37.2 µM (inactive)	> 100 µM (inactive)	66.8 µM (inactive)	41 µM (inactive)	57.5 µM (inactive)	> 100 µM (inactive)	> 100 µM (inactive)	89.7 µM (inactive)	67.5 µM (inactive)	26.9 µM (inactive)	47.8 µM (inactive)	> 100 µM (inactive)
COC(=N)C12C(N)=NC(OC)(OC)C1(C#N)C21C(=O)N(c2ccccc2)N=C1C (stereo not given)	> 100 µM (inactive)	> 100 µM (inactive)	> 100 µM (inactive)	> 100 µM (inactive)	> 100 µM (inactive)	> 100 µM (inactive)	> 100 µM (inactive)	> 100 µM (inactive)	> 100 µM (inactive)	> 100 µM (inactive)	> 100 µM (inactive)	> 100 µM (inactive)	> 100 µM (inactive)	> 100 µM (inactive)	> 100 µM (inactive)	> 100 µM (inactive)	> 100 µM (inactive)	> 100 µM (inactive)	> 100 µM (inactive)	> 100 µM (inactive)
N#C/C(=C/N1C(=O)/C(=C/c2ccc([N+](=O)[O-])cc2)SC1=S)c1nc2ccccc2s1	17.3 µM (inactive)	31.2 µM (inactive)	17.5 µM (inactive)	24.4 µM (inactive)	30.1 µM (inactive)	25.4 µM (inactive)	11.1 µM (inactive)	25.1 µM (inactive)	28.2 µM (inactive)	0.406 µM (active)	25.8 µM (inactive)	14.8 µM (inactive)	25.6 µM (inactive)	29.6 µM (inactive)	11.3 µM (inactive)	14.3 µM (inactive)	31.8 µM (inactive)	8.85 µM (inactive)	19.4 µM (inactive)	28.9 µM (inactive)
CC(=NNC(=S)Nc1ccccc1)c1cccc(C(C)=NNC(=S)Nc2ccccc2)n1	1.23 µM (inactive)	2.34 µM (inactive)	2.25 µM (inactive)	14.1 µM (inactive)	> 100 µM (inactive)	1.75 µM (inactive)	2.83 µM (inactive)	10.8 µM (inactive)	3.38 µM (inactive)	2.11 µM (inactive)	4.57 µM (inactive)	2.65 µM (inactive)	3.94 µM (inactive)	19.3 µM (inactive)	3.62 µM (inactive)	3.32 µM (inactive)	> 20.1 µM (inactive)	5.96 µM (inactive)	12.2 µM (inactive)	1.47 µM (inactive)
CC(C)(C)C1CCC2(CC1)CCN(CCCN1CCOCC1)CC2	> 73.3 µM (inactive)	6.5 µM (inactive)	17.7 µM (inactive)	28.8 µM (inactive)	16.9 µM (inactive)	20.2 µM (inactive)	17.5 µM (inactive)	24.8 µM (inactive)	> 56 µM (inactive)	> 41.5 µM (inactive)	18.5 µM (inactive)	39.7 µM (inactive)	> 49.9 µM (inactive)	> 71.4 µM (inactive)	> 47.1 µM (inactive)	27.6 µM (inactive)	> 100 µM (inactive)	42.9 µM (inactive)	> 100 µM (inactive)	18.7 µM (inactive)
O=C(O)CCc1nc2ccccc2[nH]1 [PROCODAZOLE]	> 100 µM (inactive)	> 100 µM (inactive)	> 100 µM (inactive)	> 100 µM (inactive)	> 100 µM (inactive)	> 100 µM (inactive)	> 100 µM (inactive)	> 100 µM (inactive)	> 100 µM (inactive)	> 100 µM (inactive)	> 100 µM (inactive)	> 100 µM (inactive)	> 100 µM (inactive)	> 100 µM (inactive)	> 100 µM (inactive)	> 100 µM (inactive)	> 100 µM (inactive)	> 100 µM (inactive)	> 100 µM (inactive)	> 100 µM (inactive)
